Results taken from patent US11046687B2, “Polycyclic amide compound, preparation process and use thereof” (HEBEI GRANDIOS PHARMA CO., LTD., priority 2018, dated 2021).

Legend:
[1] = test system: human lung cancer cells (A-549); experiment: MTT assay, in vitro growth inhibition, A-549 cells; format: cell-based; design: in vitro growth inhibition rate, A549: unit not given here; conditions: test drug concentration 4 μg/mL, 37° C., 3 days; for inhibition at 4 µg/mL: Homo sapiens, A549, 72 h, read-out: in vitro growth inhibition rate, A549
Description: (§1) The in vitro cytotoxicity of the compounds of the present invention was tested with reference to the experimental methods reported in the literature (Liu Yanqin et al., Organic Chemistry, 2002, 22(4), 279-282). The human oral epithelial cancer cells (KB), human lung cancer cells (A-549), and breast cancer cells (MDA) were used to test the in vitro growth inhibition rate of the compounds by MTT assay. Cells were cultured at 37° C. for 3 days under a test drug concentration of 4 μg/mL.

[2] = test system: breast cancer cells (MDA); experiment: MTT assay, in vitro growth inhibition, MDA cells; format: cell-based; design: in vitro growth inhibition rate, MDA: unit not given here; conditions: test drug concentration 4 μg/mL, 37° C., 3 days; for inhibition at 4 µg/mL: 72 h, read-out: in vitro growth inhibition rate, MDA
Description: as §1

CNC(C)CNC(=O)c1cccc2cc3ccccc3nc12 (stereo not shown) [Compound 5]
in vitro growth inhibition rate, A549 [1]: −11
in vitro growth inhibition rate, MDA [2]: −5.1

CCNC(C)CNC(=O)c1cccc2cc3ccccc3nc12 (stereo not shown) [Compound 6]
in vitro growth inhibition rate, A549 [1]: −5
in vitro growth inhibition rate, MDA [2]: −1.5

CCN(C)C(C)CNC(=O)c1cccc2cc3ccccc3nc12 (stereo not shown) [Compound 7]
in vitro growth inhibition rate, A549 [1]: −5.8
in vitro growth inhibition rate, MDA [2]: 4.4

CCN(CC)C(C)CNC(=O)c1cccc2cc3ccccc3nc12 (stereo not shown) [Compound 8]
in vitro growth inhibition rate, A549 [1]: −6.6
in vitro growth inhibition rate, MDA [2]: −4.7

CC(C)N(C)C(C)CNC(=O)c1cccc2cc3ccccc3nc12 (stereo not shown) [Compound 10, N-[2-(N-isopropylmethylamino)propyl]acridine-4-carboxamide]
inhibition at 4 µg/mL [1]: 3.3%
inhibition at 4 µg/mL [2]: 1.2%

CCNCC(C)NC(=O)c1cccc2cc3ccccc3nc12 (stereo not shown) [Compound 22]
in vitro growth inhibition rate, A549 [1]: 3.1
in vitro growth inhibition rate, MDA [2]: 2.5

Cc1cccc2nc3cccc(C(=O)NCC(C)N(C)C(C)C)c3nc12 (stereo not shown) [Compound 50, N-[2-(N-isopropylmethylamino)propyl]-1-methylphenazine-9-carboxamide]
inhibition at 4 µg/mL [1]: -7.8%
inhibition at 4 µg/mL [2]: -7.2%

Cc1cccc2nc3cccc(C(=O)NC(C)CN(C)C(C)C)c3nc12 (stereo not shown) [Compound 66, N-[1-methyl-2-(N-isopropylmethylamino)ethyl]-1-methylphenazine-9-carboxamide]
inhibition at 4 µg/mL [1]: 1.2%
inhibition at 4 µg/mL [2]: 1.9%

CNCCNC(=O)c1cn(-c2ccc(F)cc2)c(=O)c2cc3cccc(C)c3nc12 [Compound 85]
in vitro growth inhibition rate, A549 [1]: −3.4
in vitro growth inhibition rate, MDA [2]: −1.8

CCN(C)CCNC(=O)c1cn(-c2ccc(F)cc2)c(=O)c2cc3cccc(C)c3nc12 [Compound 86]
in vitro growth inhibition rate, A549 [1]: 9.8
in vitro growth inhibition rate, MDA [2]: 14

CCNCCNC(=O)c1cn(C)c(=O)c2cc3cccc(C)c3nc12 [Compound 87]
in vitro growth inhibition rate, A549 [1]: 5
in vitro growth inhibition rate, MDA [2]: 3.9

CCN(C)CCNC(=O)c1cn(C)c(=O)c2cc3cccc(C)c3nc12 [Compound 88]
in vitro growth inhibition rate, A549 [1]: 1.6
in vitro growth inhibition rate, MDA [2]: 1.4

CCN(C)CCNC(=O)c1cn(CC)c(=O)c2cc3cccc(C)c3nc12 [Compound 90, N-[2-(N-ethylmethylamino)ethyl]-2-ethyl-6-methyl-1-oxo-1,2-dihydrobenzo[b][1,6]naphthyridine-4-carboxamide]
inhibition at 4 µg/mL [1]: 3.5%
inhibition at 4 µg/mL [2]: 6.4%

CN(C)CCNC(=O)c1cccc2cc3ccccc3nc12 [DACA (1), reference compound]
inhibition at 4 µg/mL [1]: 1.7%
inhibition at 4 µg/mL [2]: 2%
